Assay results: paper PMC5653232 (Cell reports, 2017)

Key:
Assay type in all cases: binding
[1] = system: biotinylated histone peptides (residues 1–20 of H3); assay: Pull-down of GST-CHD3 PHDs with biotinylated histone H3 peptides, Western blot; settings: blots overexposed to the same degree as PHD1/2; 2 h at 4 °C, pH 8.0
CHD3 PHD1/2 = assay: 1H,15N HSQC NMR titration, linked CHD3 PHD1/2; settings: 15N-labelled PHD1/2, 298 K, H3 peptides aa 1–12
CHD3 PHD1 = CHD3 PHD1 (Homo sapiens, UniProt Q12873); assay: 1H,15N HSQC NMR titration, CHD3 PHD1; settings: compared with unmodified H3; protein:peptide ratio 1:0.5; 298 K
CHD3 PHD2 = CHD3 PHD2 (Homo sapiens, UniProt Q12873); assay: 1H,15N HSQC NMR titration, CHD3 PHD2; settings: compared with unmodified H3; protein:peptide ratio 1:0.5; 298 K

Substance	pull-down association of individual PHD1 and PHD2 with histone peptides [1]	chemical shift perturbations, linked PHD1/2 (CHD3 PHD1/2)	effect of modification on binding by NMR CSPs, PHD1 (CHD3 PHD1)	effect of modification on binding by NMR CSPs, PHD2 (CHD3 PHD2)
PHD1: PHD1 (373–427) of CHD3 (GYETDHQDYCEVCQQGGEIILCDTCPRAYHLVCLDPELDRAPEGKWSCPHCEKEG; left off: GST, end not stated, cleaved)	barely detectable			
PHD2: PHD2 (454–508) of CHD3 (DHMEYCRVCKDGGELLCCDACISSYHIHCLNPPLPDIPNGEWLCPRCTCPVLKGR; left off: GST, end not stated, cleaved)	barely detectable			
H3K4me3: histone H3 peptide (aa 1–12) with the K4me3 modification		CSPs consistent with a much weaker association	strong inhibitory effects	strong inhibitory effects
